Measurements: PMC8296708, “The pan HDAC inhibitor Givinostat improves muscle function and histological parameters in two Duchenne muscular dystrophy murine models expressing different haplotypes of the LTBP4 gene” (Skeletal Muscle, 2021)
Read-outs that look alike come from different tables or passages of the source.

Test: Pharmacokinetic study: plasma, blood and quadriceps Givinostat levels after single oral dose (LC-MS/MS)
Type: in vivo, mdx mice (C57BL/10ScSn-Dmd^mdx/J)
Details: mdx mice; for Kp: quadriceps muscle and plasma
Experimental: For the PK study, C57BL/10ScSn-Dmd^mdx/J (Stock No: 001801) 9-week-old male mice were purchased from The Jackson Laboratories (Bar Harbor, Maine, USA). After 5 days of acclimatization in the animal facility, mdx mice were randomized into 4 treatment groups (28 mice/group; 4 mice/cage) and 1 untreated group (4 mice) based on their BW. Animals were administered with single oral dose of Givinostat at 5, 10, 25, and 37.5 mg/kg and samples were collected at the following time points: 0.5, 1, 1.5, 2, 3, 4, and 6 h after administration.
In the PK study, formulations were prepared suspending Givinostat in 0.5% methylcellulose at the concentrations of 0.5, 1, 2.5, and 3.75 mg/mL. The administered volume was 10 mL/kg to obtain 5, 10, 25, and 37.5 mg/kg dosages.
Mice were maintained under isoflurane anesthesia. Blood samples were collected in two aliquots from the retro-orbital plexus of mice and transferred into tubes containing heparin as anticoagulant (100 USPunits/mL) and then mice were sacrificed by cervical dislocation. One aliquot of 50 μL was diluted with the same volume of water and immediately frozen in dry ice. This blood was analyzed in order to subtract the blood content of Givinostat from the muscle homogenate. The other aliquot of blood was centrifuged for 10 min at 13,000 rpm at 4 °C and plasma was separated and frozen in dry ice. The quadriceps of the right hindlimb was removed, weighed, and then washed twice in 1 mL of PBS pH 7.4 and dried with paper, then it was frozen in dry ice.
Givinostat was determined in mouse plasma (50 μL) following a protein precipitation (200 μL of 1% HCOOH in acetonitrile) and Ostro (Waters) plate filtration. The organic phase was evaporated under a stream of nitrogen; the residue was re-dissolved in the reconstitution solvent (100 μL of 25% CH3CN-75% H2O-0.05% TFA), and 5 μL was analyzed. Givinostat concentrations were measured by LC-MS/MS method, in the calibration range of 0.5–400 ng/mL.
Givinostat was determined in diluted blood (100 μL, 1:2 in water) with a liquid-liquid extraction. Samples were mixed and extracted with 2 mL of diethyl ether and centrifuged, and the organic phase was separated and evaporated under a stream of nitrogen. The residue was re-dissolved in the reconstitution solvent (150 μL of 25% CH3CN-75% H2O-0.05% TFA), sonicated, and filtered (regenerated cellulose syringe filters), and 5 μL was analyzed by LC-MS/MS method. The calibration range of the method was 1–200 ng/mL.
Mouse quadriceps were homogenized in PBS pH = 7.4 (1:10 w/v) with ultrasonic homogenizer (Sonoplus Mini20 - Bandelin) maintaining the samples in an ice bath. Quadricep homogenate (100 μL) was added with 200 μL of 0.5% TFA in CH3CN, vortexed, and centrifuged. Then, 100 μL of supernatant was diluted with H2O (1:2). Samples were filtered (regenerated cellulose syringe filters) and aliquots of 5 μL were analyzed. Givinostat concentrations were measured by LC-MS/MS method, in the calibration range of 1–40 ng/mL.
PK parameters were evaluated on mean curves using conventional non-compartmental methodology by the software KineticaTM v. 5.1. Quadriceps concentrations were expressed as nanograms per gram of muscle, this value was obtained by multiplying the homogenate concentrations obtained for the homogenate volume, then subtracting the residual blood content, as reported in literature, considering the measured blood concentrations and dividing for the muscle weight.

[1] = male, C57BL/10ScSn-Dmd^mdx/J (mdx), mouse, blood, 5 mg/kg single oral dose
[2] = male, C57BL/10ScSn-Dmd^mdx/J (mdx), mouse, blood, 10 mg/kg single oral dose
[3] = male, C57BL/10ScSn-Dmd^mdx/J (mdx), mouse, blood, 25 mg/kg single oral dose
[4] = male, C57BL/10ScSn-Dmd^mdx/J (mdx), mouse, blood, 37.5 mg/kg single oral dose
[5] = male, C57BL/10ScSn-Dmd^mdx/J (mdx), mouse, plasma, 5 mg/kg single oral dose
[6] = male, C57BL/10ScSn-Dmd^mdx/J (mdx), mouse, plasma, 10 mg/kg single oral dose
[7] = male, C57BL/10ScSn-Dmd^mdx/J (mdx), mouse, plasma, 25 mg/kg single oral dose
[8] = male, C57BL/10ScSn-Dmd^mdx/J (mdx), mouse, plasma, 37.5 mg/kg single oral dose

## CCN(CC)Cc1ccc2cc(COC(=O)Nc3ccc(C(=O)NO)cc3)ccc2c1 [Givinostat]
All doses investigated (5-37.5 mg/kg p.o.)
  Detectability in plasma, blood and muscle samples after oral treatment: detectable in all plasma, blood, and muscle samples up to 6 h
male, C57BL/10ScSn-Dmd^mdx/J (mdx), mouse, blood and plasma, 5 mg/kg single oral dose, read-out: AUCtot Blood/Plasma ratio
  blood plasma ratio: 1.6
male, C57BL/10ScSn-Dmd^mdx/J (mdx), mouse, blood and plasma, 25 mg/kg single oral dose, read-out: AUCtot Blood/Plasma ratio
  blood plasma ratio: 1.5
male, C57BL/10ScSn-Dmd^mdx/J (mdx), mouse, blood and plasma, 37.5 mg/kg single oral dose, read-out: AUCtot Blood/Plasma ratio
  blood plasma ratio: 1.4
male, C57BL/10ScSn-Dmd^mdx/J (mdx), mouse, blood and plasma, mean over 5, 10, 25, 37.5 mg/kg oral doses, read-out: AUCtot Blood/Plasma ratio, mean
  blood plasma ratio: 1.6
male, C57BL/10ScSn-Dmd^mdx/J (mdx), mouse, blood, po, 5 mg/kg, blood, 5 mg/kg single oral dose, read-out: Cmax
  Cmax: 35.1 ng/mL
male, C57BL/10ScSn-Dmd^mdx/J (mdx), mouse, blood, po, 10 mg/kg, blood, 10 mg/kg single oral dose, read-out: Cmax
  Cmax: 170 ng/mL
male, C57BL/10ScSn-Dmd^mdx/J (mdx), mouse, blood, po, 25 mg/kg, blood, 25 mg/kg single oral dose, read-out: Cmax
  Cmax: 639 ng/mL
male, C57BL/10ScSn-Dmd^mdx/J (mdx), mouse, blood, po, 37.5 mg/kg, blood, 37.5 mg/kg single oral dose, read-out: Cmax
  Cmax: 1120 ng/mL
male, C57BL/10ScSn-Dmd^mdx/J (mdx), mouse, plasma, po, 5 mg/kg, plasma, 5 mg/kg single oral dose, read-out: Cmax
  Cmax: 24 ng/mL
male, C57BL/10ScSn-Dmd^mdx/J (mdx), mouse, plasma, po, 10 mg/kg, plasma, 10 mg/kg single oral dose, read-out: Cmax
  Cmax: 96.7 ng/mL
male, C57BL/10ScSn-Dmd^mdx/J (mdx), mouse, plasma, po, 25 mg/kg, plasma, 25 mg/kg single oral dose, read-out: Cmax
  Cmax: 416 ng/mL
male, C57BL/10ScSn-Dmd^mdx/J (mdx), mouse, plasma, po, 37.5 mg/kg, plasma, 37.5 mg/kg single oral dose, read-out: Cmax
  Cmax: 807 ng/mL
male, C57BL/10ScSn-Dmd^mdx/J (mdx), mouse, po, 5 mg/kg, 5 mg/kg single oral dose, read-out: AUCtot Muscle/Plasma ratio
  Kp: 6.2
male, C57BL/10ScSn-Dmd^mdx/J (mdx), mouse, po, 10 mg/kg, 10 mg/kg single oral dose, read-out: AUCtot Muscle/Plasma ratio
  Kp: 5.8
male, C57BL/10ScSn-Dmd^mdx/J (mdx), mouse, po, 25 mg/kg, 25 mg/kg single oral dose, read-out: AUCtot Muscle/Plasma ratio
  Kp: 2.8
male, C57BL/10ScSn-Dmd^mdx/J (mdx), mouse, po, 37.5 mg/kg, 37.5 mg/kg single oral dose, read-out: AUCtot Muscle/Plasma ratio
  Kp: 3.2
male, C57BL/10ScSn-Dmd^mdx/J (mdx), mouse, po, 37.5 mg/kg, mean over 5, 10, 25, 37.5 mg/kg oral doses, read-out: AUCtot Muscle/Plasma ratio, mean
  Kp: ~4.5
male, C57BL/10ScSn-Dmd^mdx/J (mdx), mouse, quadriceps muscle, po, 5 mg/kg, muscle (quadriceps), 5 mg/kg single oral dose, read-out: Cmax
  Cmax: 117 ng/g
male, C57BL/10ScSn-Dmd^mdx/J (mdx), mouse, quadriceps muscle, po, 10 mg/kg, muscle (quadriceps), 10 mg/kg single oral dose, read-out: Cmax
  Cmax: 197 ng/g
male, C57BL/10ScSn-Dmd^mdx/J (mdx), mouse, quadriceps muscle, po, 25 mg/kg, muscle (quadriceps), 25 mg/kg single oral dose, read-out: Cmax
  Cmax: 607 ng/g
male, C57BL/10ScSn-Dmd^mdx/J (mdx), mouse, quadriceps muscle, po, 37.5 mg/kg, muscle (quadriceps), 37.5 mg/kg single oral dose, read-out: Cmax
  Cmax: 1180 ng/g
male, C57BL/10ScSn-Dmd^mdx/J (mdx), mouse, whole blood and plasma, 10 mg/kg single oral dose, read-out: AUCtot Blood/Plasma ratio
  blood plasma ratio: 1.8
[1]
  AUC: 156 ng·h/mL
  Tmax: 3 h
[2]
  AUC: 458 ng·h/mL
  Tmax: 2 h
[3]
  AUC: 1810 ng·h/mL
  Tmax: 1.5 h
[4]
  AUC: 2180 ng·h/mL
  Tmax: 0.5 h
male, C57BL/10ScSn-Dmd^mdx/J (mdx), mouse, muscle (quadriceps), 5 mg/kg single oral dose
  Tmax: 3 h
male, C57BL/10ScSn-Dmd^mdx/J (mdx), mouse, muscle (quadriceps), 10 mg/kg single oral dose
  Tmax: 2 h
male, C57BL/10ScSn-Dmd^mdx/J (mdx), mouse, muscle (quadriceps), 25 mg/kg single oral dose
  Tmax: 2 h
male, C57BL/10ScSn-Dmd^mdx/J (mdx), mouse, muscle (quadriceps), 37.5 mg/kg single oral dose
  Tmax: 0.5 h
[5]
  AUC: 95.2 ng·h/mL
  Tmax: 0.5 h
[6]
  AUC: 261 ng·h/mL
  Tmax: 2 h
[7]
  AUC: 1230 ng·h/mL
  Tmax: 1.5 h
[8]
  AUC: 1510 ng·h/mL
  Tmax: 0.5 h
Mean over 5, 10, 25, 37.5 mg/kg oral doses, listed as ITF2357
  AUCtot Muscle/Plasma ratio, mean: 4.5
Muscle (quadriceps), 5 mg/kg single oral dose
  AUCtot: 594.4 ng·h/g
Muscle (quadriceps), 10 mg/kg single oral dose
  AUCtot: 1511.9 ng·h/g
Muscle (quadriceps), 25 mg/kg single oral dose
  AUCtot: 3511.2 ng·h/g
Muscle (quadriceps), 37.5 mg/kg single oral dose
  AUCtot: 4804.6 ng·h/g
plasma, 5 mg/kg single oral dose, listed as ITF2357, 5 mg/kg
  Cmax: 24.17 ng/mL
plasma, 37.5 mg/kg single oral dose, listed as ITF2357, 37.5 mg/kg
  Cmax: 807.39 ng/mL
